Molecules are shown by their SMILES.

What is called IC50 is the point on the concentration scale where inhibition reaches its midpoint.

One test deals with human neutrophils. The experiment in a line: Measurement of activation of human neutrophils (NETs formation, SYTOX Green fluorescence, immune complex stimulation). As to conditions: Neutrophil, immobilized HSA/anti-HSA immune complex, 1 hour preincubation, 4 hours at 37° C. It is filed as cell-based. The protocol:
Human serum albumin (HSA) (Sigma) was immobilized on a 96-well plate and anti-HSA antibody (Sigma) was added to form an immune complex. Blocking was performed with 10% fetal bovine serum (FBS), and the plate was then used for neutrophil activation.
Various compounds having a Btk inhibitory activity were used as the test compounds. The test compound was dissolved in DMSO and dilution with RPMI 1640 culture medium (10% FBS, contained 1% penicillin/streptomycin) was then performed to prepare a test compound solution with a concentration 11-times that of the final concentration. 180 μL of a culture medium-diluted human neutrophil suspension was added to 20 μL of the 11×-concentration test compound solution, or the medium (1.1% DMSO), and incubation was performed for 1 hour at room temperature.
20 μL of a 50 μM SYTOX Green solution (Thermo Fisher Scientific Inc.) was then added to the plate bearing the immobilized immune complex; 180 μL (1×10^5 cells/well) of the test compound-treated neutrophil suspension was added; and incubation was carried out for 4 hours at 37° C. and 5% CO2. The relative fluorescence units of the SYTOX Green bound to NETs from the neutrophils were measured using a microplate reader (Molecular Devices) and conditions of an excitation wavelength of 475 nm and a fluorescence wavelength of 523 nm. The percent inhibition (%) for the test compound was calculated using the formula given below. The percent inhibition (%) was graphically plotted using Prism (ver. 5.04, GraphPad Software) and the IC50 value was determined.
A: relative fluorescence units when the test compound was added B: relative fluorescence units at the time of stimulation C: relative fluorescence units without stimulation
Turning to `C[C@H]1CN(C2COC2)CCN1c1ccc(Nc2cc(-c3ccnc(N4CCn5c(cc6c5CC(C)(C)C6)C4=O)c3CO)cn(C)c2=O)nc1` [fenebrutinib], the IC50 was 0.062 µM.
On the same count and under the same terms, then `C=CC(=O)N1CCC[C@@H](n2nc(-c3ccc(Oc4ccccc4)cc3)c3c(N)ncnc32)C1` [ibrutinib], with 0.0036 µM; and `CC#CC(=O)N1CCC[C@H]1c1nc(-c2ccc(C(=O)Nc3ccccn3)cc2)c2c(N)nccn12` [acalabrutinib], with 0.084 µM; and `CC#CC(=O)N1CC[C@@H](n2c(=O)n(-c3ccc(Oc4ccccc4)cc3)c3c(N)ncnc32)C1` [tirabrutinib, 6-amino-9-[(3R)-1-(buta-2-ynoyl)pyrrolidin-3-yl]-7-(4-phenoxyphenyl)-7,9-dihydro-8H-purin-8-one], with 0.022 µM.
In turn, `Cc1c(-c2c(F)cc(C(N)=O)c3[nH]c4c(c23)CC[C@H](C(C)(C)O)C4)cccc1-n1c(=O)c2cccc(F)c2n(C)c1=O` [BMS-986142] showed an IC50 of 0.044 µM.

Staying with this test, now noted: Neutrophil, immobilized HSA/anti-HSA immune complex, 1 hour preincubation, 4 hours at 37° C., unit given as M.
Molecule `C=CC(=O)N1CCC(CNc2ncnc(N)c2-c2ccc(Oc3ccccc3)cc2)CC1` [evobrutinib] registered a half-maximal inhibitory concentration (IC50) of 0.057 µM.

The values above are taken from patent publication US20210113568A1, “PREVENTIVE AND/OR THERAPEUTIC AGENT FOR AUTOIMMUNE DISEASE COMPRISING COMPOUND HAVING Btk INHIBITORY ACTIVITY AS ACTIVE INGREDIENT” (ONO PHARMACEUTICAL CO., LTD., priority 2018, published 2021).
